In PMC11042245, “Discovery of novel SOS1 inhibitors using machine learning” (RSC Medicinal Chemistry, 2024):
Like-named read-outs stand apart in the source and are kept apart here.

Assays:
[1] = test system: SOS1; conditions: cited from earlier work; for IC50: read-out: Actual IC50
[2] = biological target: T1, KRAS G12C/SOS1 (Homo sapiens, UniProt Q07889); assay: KRAS G12C/SOS1 PPI homogeneous time-resolved fluorescence (HTRF) assay; type: binding; conditions: for inhibition at 25 µg/mL: read-out: Inhibition rate at 25 μg mL^−1 (%); for inhibition at 0.5 µg/mL / inhibition at 10 µg/mL / inhibition at 40 µg/mL / inhibition at 50 µg/mL: read-out: Inhibition rate (%)
T1 construct: purchased Cytoskeleton (SOS1); AntibodySystem (KRAS G12C)
T1 sequence (Q07889 564-1049 limits assumed): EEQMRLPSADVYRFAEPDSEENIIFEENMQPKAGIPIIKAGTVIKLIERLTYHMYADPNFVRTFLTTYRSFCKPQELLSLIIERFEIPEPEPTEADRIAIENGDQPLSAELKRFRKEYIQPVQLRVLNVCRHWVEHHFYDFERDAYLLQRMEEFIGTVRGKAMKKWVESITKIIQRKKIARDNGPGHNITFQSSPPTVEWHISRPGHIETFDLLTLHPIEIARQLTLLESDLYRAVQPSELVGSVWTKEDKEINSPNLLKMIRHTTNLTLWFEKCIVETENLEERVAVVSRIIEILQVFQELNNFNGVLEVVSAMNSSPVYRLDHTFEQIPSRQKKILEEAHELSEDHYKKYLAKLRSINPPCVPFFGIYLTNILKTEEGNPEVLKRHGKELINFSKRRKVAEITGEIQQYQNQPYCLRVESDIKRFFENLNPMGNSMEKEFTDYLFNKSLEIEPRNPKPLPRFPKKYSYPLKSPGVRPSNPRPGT
Procedure: All the test compounds were provided by the CNCL (https://www.cncl.org.cn/). […] The percentage inhibition was calculated by comparison with the buffer control group. The IC50 value was calculated by GraphPad Prism software in inhibitor versus normalized response (variable slope) mode.

[3] = 10% reserved data (Table S3), ref ChEMBL database (version 31)
[4] = converted from μg mL^−1, read-out: IC50 calculated using the molecular weight of each compound
[5] = dose-response 0.5–50 μg mL^−1, read-out: IC50 (μg mL^−1)

COc1cc2nc(C)nc(N[C@H](C)c3cc(N)cc(C(F)(F)F)c3)c2cc1O[C@H]1CCN(C(C)=O)C1 [CHEMBL4435672]
Actual pChEMBL [1, 3]: 8.52

Cc1nc(N[C@H](C)c2cc(N)cc(C(F)(F)F)c2C)c2cc(C3CCS(=O)(=O)CC3)ccc2n1 [CHEMBL4441820]
Actual pChEMBL [1, 3]: 8.40

Cc1cccc([C@@H](C)Nc2nc(C)nc3ccc(C4CCS(=O)(=O)CC4)cc23)c1 [CHEMBL4443395]
Actual pChEMBL [1, 3]: 7.54

COCC(=O)N1CCC(c2cc3c(N[C@H](C)c4cccc(C)c4)nc(C)nc3cc2C)CC1 [CHEMBL4448274]
Actual pChEMBL [1, 3]: 7.47

COc1cc2nc(C)nc(N[C@H](C)c3cc(N)cc(C(F)(F)F)c3)c2cc1C1CCC(C(=O)N2CCOCC2)CC1 (some centres unmarked) [CHEMBL4451252]
Actual pChEMBL [1, 3]: 7.60

COc1cc2nc(C)nc(N[C@H](C)c3cccc(C(F)(F)F)c3)c2cc1-c1ccc(C(=O)N(C)CCO)cc1 [CHEMBL4453639]
Actual pChEMBL [1, 3]: 7.40

COc1cc2nc(C)nc(N[C@H](C)c3cccc(C)c3)c2cc1-c1ccc(=O)[nH]c1 [CHEMBL4455684]
Actual pChEMBL [1, 3]: 7.55

CCOc1cc2c(N[C@H](C)c3ccc(F)cc3)nc(C)nc2cn1 [CHEMBL4456281]
Actual pChEMBL ([1]; Table 3): 5.03 | IC50 ([1]; Table 3): 9.3 µM

COc1cc2nc(C)nc(N[C@H](C)c3cccc(C(F)(F)F)c3F)c2cc1C1(O)CCC(C(=O)N(C)C)CC1 (some centres unmarked) [CHEMBL4459389]
Actual pChEMBL [1, 3]: 8.30

CC(=O)N[C@@H]1CCN(c2cc3c(NC(C)c4ccc(-c5ccccc5CN(C)C)s4)nc(C)nc3cn2)C1 (some centres unmarked) [CHEMBL4463000]
Actual pChEMBL ([1]; Table 3): 7.82 | IC50 ([1]; Table 3): 0.015 µM

Cc1cccc([C@@H](C)Nc2nc(C)nc3ccc([C@H]4CC[C@H](C(=O)N5CC(C#N)C5)CC4)cc23)c1 [CHEMBL4463184]
Actual pChEMBL [1, 3]: 7.44

CONC(=O)CC(C)c1cc2c(N[C@H](C)c3cccc(C(F)(F)F)c3)nc(C)nc2cc1C (some centres unmarked) [CHEMBL4464090]
Actual pChEMBL [1, 3]: 8.10

COCC(=O)N1CCC(c2ccc3nc(C)nc(N[C@H](C)c4cc(N)cc(C(F)(F)F)c4)c3c2)CC1 [CHEMBL4469357]
Actual pChEMBL [1, 3]: 8.70

Cc1cccc([C@@H](C)Nc2nc(C)nc3cc(C)c(-c4ccc(=O)n(C)c4)cc23)c1 [CHEMBL4473214]
Actual pChEMBL [1, 3]: 7.44

COCCN(C)C(=O)C1CCC(c2cc3c(N[C@H](C)c4cc(N)cc(C(F)(F)F)c4)nc(C)nc3cc2OC)CC1 (some centres unmarked) [CHEMBL4513254]
Actual pChEMBL [1, 3]: 8.52

COc1cc2nc(C)nc(N[C@H](C)c3cccc(C(F)(F)F)c3)c2cc1-c1ccc(C(=O)N(C)C)cn1 [CHEMBL4515122]
Actual pChEMBL [1, 3]: 7.46

CC(=O)N1CCC(O)(c2ccc3nc(C)nc(N[C@H](C)c4cccc(C)c4)c3c2)CC1 [CHEMBL4524954]
Actual pChEMBL [1, 3]: 7.85

COc1cc2nc(C)nc(N[C@H](C)c3cccc(C(F)(F)CO)c3)c2cc1C1=CCC(C(=O)N(C)C)CC1 (some centres unmarked) [CHEMBL4529467]
Actual pChEMBL [1, 3]: 8.70

Cc1nc(N[C@H](C)c2cccc(C(F)(F)F)c2)c2cc([C@]3(O)CC[C@H](C(=O)N(C)C)CC3)ccc2n1 [CHEMBL4533487]
Actual pChEMBL [1, 3]: 7.57

Cc1nc(N[C@H](C)c2cc(N)cc(C(F)(F)F)c2)c2cc(C3CCN(C(=O)CN(C)C)CC3)ccc2n1 [CHEMBL4539190]
Actual pChEMBL [1, 3]: 8.52

Cc1nc(N[C@H](C)c2cc(N)cc(C(F)(F)F)c2)c2cc(C3CCC(C(=O)N4CCOCC4)CC3)ccc2n1 (some centres unmarked) [CHEMBL4540213]
Actual pChEMBL [1, 3]: 8.70

CCOc1cc2c(N[C@H](C)c3ccccc3)nc(C)nc2cn1 [CHEMBL4545109]
Actual pChEMBL ([1]; Table 3): 5.69 | IC50 ([1]; Table 3): 2.06 µM

Cc1nc(N[C@H](C)c2cc(N)cc(C(F)(F)F)c2)c2cc(-c3cnn(CC(=O)N(C)C)c3)ccc2n1 [CHEMBL4546387]
Actual pChEMBL [1, 3]: 8.10

CCn1ccc(-c2cc3c(N[C@H](C)c4cc(N)cc(C(F)(F)F)c4)nc(C)nc3cc2C)cc1=O [CHEMBL4551748]
Actual pChEMBL [1, 3]: 8.30

Cc1nc(N[C@H](C)c2cc(N)cc(C(F)(F)F)c2)c2cc([C@H]3CC[C@H](C(=O)N(C)C)CC3)c(C)cc2n1 [CHEMBL4554249]
Actual pChEMBL [1, 3]: 8.70

Cc1cccc([C@@H](C)Nc2nc(C)nc3ccc(C4CC[S+]([O-])CC4)cc23)c1 (some centres unmarked) [CHEMBL4561965]
Actual pChEMBL [1, 3]: 7.66

Cc1nc(N[C@H](C)c2cccc(C(F)(F)F)c2)c2cc(-c3cc4n(n3)CCC(=O)N4)ccc2n1 [CHEMBL4570224]
Actual pChEMBL [1, 3]: 7.52

COc1cc2nc(C)nc(N[C@H](C)c3cc(N)cc(C(F)(F)F)c3F)c2cc1O[C@H]1CCOC1 [CHEMBL4572076]
Actual pChEMBL [1, 3]: 8.30

COc1cc2nc(C)nc(N[C@H](C)c3cc(N)cc(C(F)(F)F)c3F)c2cc1C1CCC(C(=O)N(C)C)CC1 (some centres unmarked) [CHEMBL4572922]
Actual pChEMBL [1, 3]: 7.46

Cc1cccc([C@@H](C)Nc2nc(C)nc3ccc(C4CCOCC4)cc23)c1 [CHEMBL4583745]
Actual pChEMBL [1, 3]: 7.37

COc1cc2nc(C)nc(N[C@H](C)c3cccc(C(F)(F)F)c3)c2cc1OC [CHEMBL5084571]
Actual pChEMBL ([1]; Table 3): 6.97 | IC50 ([1]; Table 3): 0.106 µM

COc1cc2nc(C)nc(N[C@H](C)c3cccc(S(N)(=O)=O)c3)c2cc1OC [CHEMBL5085531]
Actual pChEMBL ([1]; Table 3): 7.25 | IC50 ([1]; Table 3): 0.056 µM

COc1cc2nc(C)nc(N[C@H](C)c3ccccc3)c2cc1OC [CHEMBL5087955]
Actual pChEMBL ([1]; Table 3): 6.34 | IC50 ([1]; Table 3): 0.453 µM

CCC(C)NC(=O)c1ccc(Cn2c(=O)c3cc(OC)c(OC)cc3n(Cc3ccccc3F)c2=O)cc1 (centres unmarked) [CL00817024]
inhibition at 25 µg/mL [2]: 2 ± 0.8%

CCOCCCN(C)C1CCN(c2ncc(NC(=O)c3ccc(C)cc3)cc2C(=O)O)CC1 [CL00838284]
inhibition at 25 µg/mL [2]: 25.3 ± 0.3%

CC(C)c1cccc2cc3c(nc12)OCCN(CCc1ccc2c(c1)OCO2)C3 [CL01132463]
inhibition at 25 µg/mL [2]: -6.5 ± 2.5%

Cc1ccc(S(=O)(=O)Nc2cnc(N3CCCC3)c(C(=O)O)c2)c(C)c1 [CL01545355]
IC50 [2, 4]: 94.6 µM | IC50 [2, 5]: 94.6 µM | inhibition at 0.5 µg/mL [2]: -1.6 ± 0.2% | inhibition at 10 µg/mL [2]: 17.9 ± 3.3% | inhibition at 40 µg/mL [2]: 53.3 ± 0.5% | inhibition at 50 µg/mL [2]: 61.6 ± 4% | inhibition at 25 µg/mL [2]: 38 ± 3.3%

CC(C)c1ccc(S(=O)(=O)Nc2cnc(N3CCCC3)c(C(=O)O)c2)cc1 [CL01545365]
IC50 [2, 4]: 53.7 µM | IC50 [2, 5]: 53.7 µM | inhibition at 0.5 µg/mL [2]: 0.8 ± 1.1% | inhibition at 10 µg/mL [2]: 31.9 ± 2.8% | inhibition at 40 µg/mL [2]: 66.6 ± 0.1% | inhibition at 50 µg/mL [2]: 72.3 ± 2.7% | inhibition at 25 µg/mL [2]: 53.8 ± 1.6%

Cc1ccc(S(=O)(=O)Nc2cnc(N3CC=C(c4ccccc4C)CC3)c(C(=O)O)c2)c(C)c1 [CL01545444]
IC50 [2, 4]: 103 µM | IC50 [2, 5]: 103 µM | inhibition at 0.5 µg/mL [2]: 1.5 ± 1.1% | inhibition at 10 µg/mL [2]: 14.5 ± 3.3% | inhibition at 40 µg/mL [2]: 45.5% | inhibition at 50 µg/mL [2]: 49.9 ± 0.5% | inhibition at 25 µg/mL [2]: 31.1 ± 1.4%

Cc1ccccc1C1=CCN(c2ncc(NS(=O)(=O)c3ccc(C(C)C)cc3)cc2C(=O)O)CC1 [CL01545464]
IC50 [2, 4]: 66.3 µM | IC50 [2, 5]: 66.3 µM | inhibition at 0.5 µg/mL [2]: 3.4 ± 1.8% | inhibition at 10 µg/mL [2]: 24.2 ± 1.4% | inhibition at 40 µg/mL [2]: 55.3 ± 3.2% | inhibition at 50 µg/mL [2]: 60.5 ± 4% | inhibition at 25 µg/mL [2]: 42.9 ± 3.4%

Cc1nc(N[C@H](C)c2cccc(C(F)F)c2F)c2cc3c(cc2n1)OC[C@H]1CN(C(=O)C2(C#N)CC2)CCN31 [compound 37]
Actual pChEMBL value ([1]; external validation data): 8.33
